2 compounds from patent publication US11638427B2, “Methods and compositions for altering secondary metabolites in plants” (Impello Biosciences, Inc, priority 2020, dated 2023) can be followed below.

One data set concerns Botrytis spp. The experiment in a line: Mold growth on jasmonate-infused plates, mold isolated from strawberry. The data set is classed as cell-based. The note with it: 1 mM, 5 mM, 10 mM, or 20 mM in plates. The method, then: MDJ (TCI, CAS No.: 24851-98-7) and CJ were infused into potato dextrose agar (PDA, VWR Cat No.: 90003-494) petri dishes (100×15 mm VWR, Cat No: 25384-094) at concentrations ranging from 1 mM, 4.25 mM, and 10 mM. Each treatment was prepared using a technical grade stock solution of pure chemical (CJ or MDJ) diluted with TWEEN®-20 (VWR, CAS No.: […]). Culturable oyster mushroom and seedling mold served to create fungal mycelial plugs using a sterile 1 mL pipette tip (Eppendorf, Cat No.: 022491458) held upside down. The tips were used to make circle excisions (i.e., fungal plugs) from a mycelial mat grown on PDA with no biochemical infusions. Fungal pugs were then transferred to PDA infused with varying concentrations of CJ or MDJ, and control plates (no CJ or MDJ infusion) to monitor fungal growth at room temperature over time.
Based on the above results in Cannabis spp., additional fungi from various crops was sampled and tested. Plates comprising various concentrations of MDJ or MJ were prepared as described above.

For another data set, the system named is pineapples. Nature of the data set: Fruit MDJ spray till drip, 2 weeks observation. Type of data set: in vivo. On the procedure: For fruit MDJ dips, all fruits were purchased from a local market as certified organic on 4/13/2021. Before any treatments, all fruits were submerged in boiling water to melt off any non-natural waxy coating then dried with a washcloth. Once fruits were clean and dry, they were submerged in varying concentrations of methyl dihydrojasmonate solutions. Each solution was prepared from a 1M MDJ Tween 20 stock solution diluted with RO water. 500 ml of each solution was prepared and reused for the different fruits. Each fruit was submerged for 20 seconds and then left to dry on a paper towel. After the fruits were dry the paper towels were removed and fruits left on the lab bench at room temperature grouped by treatment but not touching and monitored for visual differences for 2 weeks. The pineapple was the only fruit that was not fully submerged but instead sprayed till drip with the varying concentration of MDJ/Tween 20 solution. Then left to dry and monitored the same as the other fruits.
Treatments and Sample Sizes:
Control, water—4 lemons, 2 oranges, 1 pineapple, 1 mango, 4 strawberries, 2 grapes (˜10 grapes/bundle), 2 oranges, 4 avocados […]
Qualitative observations like color changes, firmness, mold appearance were monitored and at the end of the two weeks all fruits were cut in half to record and further observations. Penetrometer readings were recorded in the last week of observations.

The test system of data set [1] is hemp varietal 'Bialobreszkie'. The experiment in a line: MeJA foliar spray on fiber hemp, non-targeted metabolomic analysis (UPLC-MS, GC-MS). The data set is classed as in vivo, Cannabis spp. The method, then:
The efficacy and effectiveness of an eliciting composition and methods of use to alter secondary metabolite production were tested in a controlled environment with a commercial certified hemp varietal ‘Bialobreszkie’ (Bija Hemp, Denver, Colo., USA). […] This is in comparison with high metabolite-producing hemp varieties that typically yield greater than 10% by weight total cannabinoids.
A non-targeted semi-quantitative metabolomic analysis was conducted to provide relative values for each detected analyte (i.e., compound) rather than absolute quantification, but with much greater detection limits than typical quantitative analysis provides. Additionally, the non-targeted nature allows essentially every compound that is present in the sample to be recorded and scored relative, providing a picture of the effect that each treatment has on the entire metabolome of the plant rather than only a snapshot of a few metabolites.
One hundred and forty-four (144) ‘Bialobreszkie’ variety hemp seeds were surface sterilized in a 2% NaOCI solution for 5 minutes and primed for 12 hours in a 1:30 aqueous solution of TRIBUS® Original (a commercial plant growth promoting bacterial consortia) contained in a 50 mL centrifuge tube and placed on an orbital shaker at 80 rpm, then hand sewn into two 72-cell trays filled with commercial coco coir (Canna Gardening, NL). Of the 144 seeds, 112 germinated well and were selected for use in the trial. After two weeks of development in seedling trays, all 112 plants were transplanted into 4” square plastic pots filled with pure coco coir media and watered-in with a 4-20-39 fertilizer supplemented with calcium nitrate, magnesium sulfate, and TRIBUS® beneficial bacteria at a standardized rate. At the time of transplant, all plants were transitioned into the flowering stage by manipulating the photoperiod to a 12-hour light/12-hour dark schedule per 24-hour day.
Plants were transplanted successively without regard to their size or physical attributes on Apr. 20, 2019. The square pots were arranged in an […] grid on a 4′×8′ black plastic bench under two×1000-watt DE-HPS lamps (Gavita International BV). Each pot was numbered in numerical order, row by row. After all plants/pots were labelled, a research randomizer tool (randomizer.org) was used to randomly generate 8 groups with 14 unique numbers in each group, ranging from 1-112.
Treatment groups differed only in the frequency and timing of applications. Chemical composition of the elicitor formula remained identical between all treatment groups and consisted of a 7.5 mM methyljasmonate (MeJA, technical grade, TCI America) active ingredient applied in an aqueous spray consisting of reverse-osmosis purified water, supplemented only with 0.1% v/v polysorbate-20 (TWEEN®-20, reagent grade, VWR) as an emulsifier to support oil-in-water stability. […] Treatment groups were defined as follows: […]
All plants receiving treatments were sprayed-to-drip with each application to ensure sufficient coverage. Treatments were made to all treatment plants during daylight hours but out of direct light. Plants were temporarily removed from the growing bench for treatment applications in order to prevent overspray of the treatment onto other plants in the experiment. In such instances, plants were returned to the growing bench immediately after the foliage had dried. Plants were cultivated under identical and typical growing conditions for 47 days, then whole plants were harvested successively and within one hour of each other, labeled with their corresponding plant number, and hung upside down in a well-ventilated room and allowed to dry. Loss of samples occurred either from plants dying during the experiment or insufficient flower set. All other plants in the experiment were approximately the same size and had similar numbers and size of flowers.
Each of the 8 groups (7 treatment and 1 control) began the trial with 14 plants. 109 of 112 samples were run in the assay. […]

Setting [2] is: 7.5 mM foliar spray, of the 597.

`CCCCCC1C(=O)CCC1CC(=O)OC` (stereo not shown) [MDJ, methyl dihydrojasmonate]: the “growth of mold isolated from strawberry” value with Botrytis spp. is “effective at preventing the growth”. In addition, the crown appearance result in the data set with pineapples (spray till drip 20 mM, control had the greenest crown, followed by 5 mM) is reported as “most dried out crown”. Moreover, the “mold at the base of the pineapple” value with pineapples (spray till drip, control, 5 mM and 20 mM groups, one pineapple per group) is “showed some mold”.
For `CC/C=C\C[C@H]1C(=O)CC[C@@H]1CC(=O)OC` [MeJA, Methyl Jasmonate], the “non-volatile hemp metabolome compared to the Control group (UPLC-MS)” value in data set [1] (7.5 mM applied every 7, 14 or 28 days, or only once 72 hours prior to harvest) was “substantially altered”. In addition, in data set [1] (7.5 mM exogenous foliar application), the “endogenous levels of jasmonate derivatives” value is on record as “increase endogenous levels of numerous jasmonate derivaties”. In data set [1] (setting [2]), the “significantly altered compounds not annotated” value stood at 466; the “significantly altered compounds putatively of superclass Alkaloids and derivatives” value was found to be 5; the “significantly altered compounds putatively of superclass Benzenoids” value is given as 5; the “significantly altered compounds putatively of superclass Lipid or Lipid like” value was 78. In addition, in data set [1] (setting [2]), the “significantly altered compounds putatively of superclass Organic acids and derivatives” value came out at 1; the “significantly altered compounds putatively of superclass Organic nitrogen compounds” value is 1; the “significantly altered compounds putatively of superclass Organic oxygen compounds” value is 9; the “significantly altered compounds putatively of superclass Organoheterocyclic compounds” value is reported as 10. Also, the “significantly altered compounds putatively of superclass Phenylpropanoids and polyketides” value in data set [1] (setting [2]) is reported as 14. The “non-volatile compounds significantly (p<0.05) altered by one or more treatment groups” value in data set [1] (7.5 mM foliar spray, of the 2,000+ compounds detected via UPLC-TOF) is listed as 597. In addition, the “analytes with significantly altered relative abundance compared to the control group” value in data set [1] (Treatment 1: 7.5 mM, one application every 7 days from first day of flowering) is 551. Besides, the “analytes with significantly altered relative abundance compared to the control group” value in data set [1] (Treatment 2: 7.5 mM, one application every 14 days from first day of flowering) came to 497. Besides, the “analytes with significantly altered relative abundance compared to the control group” value in data set [1] (Treatment 3: 7.5 mM, one application every 28 days from first day of flowering) is on record as 41. Besides, the “analytes with significantly altered relative abundance compared to the control group” value in data set [1] (Treatment 4: 7.5 mM, only one application on the first day of flowering) is given as “did not significantly altered the relative abundance of any analytes”. In data set [1] (Treatment 5: 7.5 mM, only one application on the 30th day of flowering), the “analytes with significantly altered relative abundance compared to the control group” value is 4. The “analytes with significantly altered relative abundance compared to the control group” value in data set [1] (Treatment 6: 7.5 mM, only one application 72 hours prior to harvest) came to 399. For the same compound, the “analytes with significantly altered relative abundance compared to the control group” value in data set [1] (Treatment 7: 7.5 mM, only one application 24 hours prior to harvest) is listed as 216.
